One assay concerns mice. Description: Passive avoidance in the shuttle chamber, amnesia caused by MK-801, mice. It is filed as in vivo, mouse. The settings on record: MK-801 0.1 mg/kg i.p., compounds injected 30 minutes before the test, FIG. 11-13. As for the experimental part:
(§1) A shuttle chamber (Ugo Basile, Italy) that consisted of two sections was used. One section was white and lightened, the other one was dark. The sections were connected through a hole which could be overlapped by automatic vertical door. The floor of the dark section was made of transverse metal bars on which DC current impulses could be fed.
(§2) On the first day of testing 30 minutes before training the animals were injected intraperitoneally with Scopolamine which causes disturbance of training (memory loss). The animals of the trial group were additionally administered with one of the tested compounds. The animals of the control group were injected with physiological solution. Each group consisted of 8 animals. The animals were placed in the light section, and latent period of the first entry into the dark chamber was registered. Then vertical door was closed and the animal was punished by 0.6 mA DC current for 3 seconds. After that the animal was taken back to its home cage. In 22-24 hours the same animal was placed again in the light section of the shuttle chamber and latent period of its first entry into the dark section, the total time of its stay in the light section and the number of entries into the dark section were registered. Each monitoring lasted for 5 minutes.
14.2.1. Passive Avoidance of mice in the Shuttle Chamber. The test was carried out as in example 14.1.1. […]

Assay [1] has as its system male mice of BALB/c line. Description: Passive avoidance in the shuttle chamber, Scopolamine amnesia model, mice. It is filed as in vivo, mouse. The settings on record: compounds injected 30 minutes before the test, read 24 hours after training, FIG. 4-6. On the procedure:
(§3) 14.1.1. Passive Avoidance of mice in the Shuttle Chamber. The experiments were carried out in aged male mice of BALB/c line weighing 20-24 g or male rats weighing 200-250 g.
as §1
as §2, with “In 22-24 hours the same animal was placed again in the light section of the shuttle chamber and latent period of its first entry into the dark section, the total time of its stay in the light section and the number of entries into the dark section were registered. Each monitoring lasted for 5 minutes.” left out

The target of another assay is 5-HT6 receptor (Homo sapiens (Human), UniProt P50406). Description: functional assay for serotonin 5-HT6 receptor inhibition (serotonin-induced intracellular cAMP, LANCE cAMP kit, HEK 293 cells). It is filed as cell-based. Particulars: HEK 293 cells with expressed 5-HT6 receptor; reduction of serotonin-induced intracellular cAMP. On the procedure:
Determination of antagonistic activity of compounds of the general formula 1 towards 5-HT6 receptors. Compounds of the general formula 1 were tested for their ability to prevent 5-HT6 receptors activation by serotonin. HEK 293 cells (cells of human embryo's kidney) with artificially expressed 5-HT6 receptor, activation of which by serotonin leads to increasing the concentration of intracellular cAMP, were used. The level of intracellular cAMP was determined using reagent kit LANCE cAMP (PerkinElmer) according to the method described by the manufacturer of the kit [http://las.perkinelmer.com/content/Manuals/MAN_LANCEcAMP384KitUser.pdf]. Effectiveness of the compounds was estimated by their ability to reduce the level of intracellular cAMP induced by serotonin. Table 4 presents IC50 values for the compounds of general formula 1 in the setting of functional assay for serotonin 5-HT6 receptor inhibition. The data given testify their moderate or high antagonistic activity.

A further assay relates to rats. In words: Passive avoidance in the shuttle chamber, amnesia caused by MK-801, rats. It is filed as in vivo, rat. Particulars: MK-801 0.1 mg/kg i.p., compounds injected 60 minutes before the test, FIG. 8-10.
The test system of a further assay is male mice of SHK line. Description: Novel object recognition test, Scopolamine amnesia model. Particulars: Scopolamine 1 mg/kg i.p.; compounds i.p. 60 minutes before training; FIG. 7. It is filed as in vivo, mouse. On the procedure:
14.1.2. Novel object recognition test. The test was carried out in aged male mice of SHK line. […] A mouse was placed into the central chamber and allowed to explore the maze. The floor was cleaned after each animal. The sequence of chamber entries and duration of visits were registered by the observer. The test was ended after 13 entries into the dead-end chambers. Criterion for entry was a location of all animal's paws inside the chamber at the same time.
During the training the animal was placed in the maze with one equiform bowl in each side chamber. In the course of testing (one hour after training) two opposite standing bowls were replaced by identical flasks, and the animal was allowed to explore the maze. The time spent by the animal in each side chamber was registered during the periods of training and testing. Index of novel object recognition was calculated as the ratio of time spent by the animal in the side chambers with novel objects to the total time spent by it in all side chambers.

For another assay, the system named is Mice of SHK line. In words: Prepulse inhibition of the startle response in mice (Apomorphine model). It is filed as in vivo, mouse. Particulars: 1 mg/kg i.p. 60 minutes before the test; FIG. 17. As for the experimental part:
Mice of SHK line weighing about 24-30 g were used in the test. The experiments were carried out during the light period of animal's diurnal. Apomorphine hydrochloride and Haloperidol were received from Sigma Chemicals Company, (USA). Apomorphine hydrochloride was dissolved in 0.1% solution of ascorbic acid prepared with sterilized water; it was introduced subcutaneously 15 minutes before the test. Haloperidol was dissolved in sterilized water using emulsifier Twin 80, it was introduced intraperitoneally 60 minutes before the test. Compounds 1.2.22(1), 1.2.22(18), 1.2.7(1) were dissolved in sterilized water and introduced intraperitoneally 60 minutes before the test. The injection volume was 10 ml/kg. 0.1%. Solution of ascorbic acid, prepared with sterilized water and Twin 80, was injected to control group of animals.
The test instrument consisted of a chamber made of transparent plexiglass (manufacturer—Columbia Instruments Company, USA) and placed on the platform; the latter was lodged inside the sound insulating chamber. A high frequency sound column transmitting acoustic stimuluses was located 2 cm away from the platform. […] The level of background noise made up 65 dB. Each animal received 4 stimuli of single testing (pulse) stimulus of 50 ms duration and 105 dB or prepulsory stimulus (pre-pulse) of 20 ms duration and 85 dB, after which in 30 ms pulse stimulus of 50 ms duration and 105 dB followed. Time interval between repeated pulse or prepulse in combination with pulse stimuli made up 10 s. Inhibition of the startle in reply to prepulse-plus-pulse stimulus was calculated in percentage towards amplitude of startle in response to isolated pulse stimulus.

Assay [2] has as its system male mice of BALB/c line. In words: Mice Behavior in the Elevated Plus Maze. It is filed as in vivo, mouse. Particulars: tested compounds i.p.; FIG. 14-16. As for the experimental part:
Anxiolytic activity of compounds 1.1(11), 1.2.7(1), 1.2.6(1), 1.2.3(1), 1.2.11(1), 1.2.22(1), 1.2.22(18) in test “Mice Behavior in the Elevated Plus Maze”. The experiments were carried out in aged male mice of BALB/c line weighing about 25 g. The animals were housed 5-7 per cage with water and food available. None of the animals was acquainted with the experimental set-up before. Each experimental group included 8 animals.
The procedure used was described earlier by Lister (Lister R. G. The use of a plus-maze to measure anxiety in the mouse. Psychopharmacology, 1987; 92:180-185). Plexiglass set-up consisted of two opened arms of 30×5 cm size and two closed arms of 30×5×15 cm size. Side arms were closed with transparent plexiglass and were connected with the central zone via a platform of 5×5 cm size. The opened arms, central platform and floor were made of black plexiglass. The set-up was mounted on a metallic base which was placed 38.5 cm above the floor level.
The animals were injected intraperitoneally with placebo, Buspirone (5 mg/kg, 30 minutes before training), Lorazepam (0.05 mg/kg, 60 minutes before training) or with one of the tested compounds 1.1(11), 1.2.7(1), 1.2.6(1), 1.2.3(1), 1.2.11(1), 1.2.22(1), 1.2.22(18). Buspirone and Lorazepam were introduced in a maximal effective dose, at which side sedative effect and general decrease of exploratory activity (the number of arm entries during the test) were not observed yet.
Each mouse was placed in the maze center with its head towards the opened arm. Over a period of 5 minutes the sequence and duration of arm entries were registered by means of a computer program. Criterion for entry is a location of all animal's paws inside the arm at the same time. The index of preference was calculated as a ratio of the time spent by the animal in the opened arms as well as the number of entries into the opened arms to the total time spent by it in the opened and closed arms or, respectively, to the whole number of entries to the arms of both types. The number of defecations left by a mouse was regarded as an additional parameter characterizing the anxiety state. Being in normal state the animals usually avoid open arms (the preference index is between 0.2 and 0.3).

In a further assay the test system is male rats. Description: Passive avoidance in the shuttle chamber, Scopolamine amnesia model, rats. It is filed as in vivo, rat. The settings on record: compounds injected 60 minutes before the test, read 24 hours after training, FIG. 1-3. As for the experimental part: as §3, §1
as §2, with “In 22-24 hours the same animal was placed again in the light section of the shuttle chamber and latent period of its first entry into the dark section, the total time of its stay in the light section and the number of entries into the dark section were registered. Each monitoring lasted for 5 minutes.” left out

Chain of 5-HT6 receptor (P50406 whole entry): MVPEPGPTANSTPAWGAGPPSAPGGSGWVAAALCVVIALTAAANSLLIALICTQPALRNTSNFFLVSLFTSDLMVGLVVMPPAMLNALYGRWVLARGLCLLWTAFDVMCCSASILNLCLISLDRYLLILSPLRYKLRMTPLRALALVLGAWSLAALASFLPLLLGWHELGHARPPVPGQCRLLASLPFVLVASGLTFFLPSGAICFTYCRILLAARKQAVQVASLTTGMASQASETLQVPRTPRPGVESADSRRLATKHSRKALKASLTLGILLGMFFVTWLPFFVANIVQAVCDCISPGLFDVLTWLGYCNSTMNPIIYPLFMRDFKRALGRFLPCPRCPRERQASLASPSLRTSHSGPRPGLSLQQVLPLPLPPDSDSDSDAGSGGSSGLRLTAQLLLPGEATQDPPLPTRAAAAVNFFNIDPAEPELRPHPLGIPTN

For `Cc1cc(C)n2nc([S+](C)[O-])c(S(=O)(=O)c3ccccc3)c2n1` (stereo not shown) [1(1)], in the assay on mice, the “effect on amnesia caused by MK-801 (latent period, light arm stay, dark arm entries)” value was “decrease amnesia caused by MK-801”. For the same molecule, in the assay on male mice of BALB/c line [1], the “effect on amnesia caused by Scopolamine (latent period, light arm stay, dark arm entries)” value is recorded as “decrease amnesia”.

In the case of `CSc1nn2c(C)cc(CO)nc2c1S(=O)(=O)c1ccccc1` [1.1.7(1), 5-(hydroxymethyl)-7-methyl-2-methylsulfanyl-3-phenylsulfonyl-pyrazolo[1,5-a]pyrimidine], in the assay on mice, the “effect on amnesia caused by MK-801 (latent period, light arm stay, dark arm entries)” value is on record as “decrease amnesia caused by MK-801”. Besides, on 5-HT6 receptor, the IC50 (commonly the concentration that inhibits the measured activity by half) stood at 177 nM.

With `CNc1nn2c(C)c(N)c(C)nc2c1S(=O)(=O)c1ccccc1.Cl` [1.2.22(1), 6-amino-5,7-dimethyl-2-methylamino-3-phenylsulfonyl-pyrazolo[1,5-a]pyrimidine], the “effect on amnesia caused by MK-801 (latent period, light arm stay, dark arm entries)” value with rats is listed as “decrease amnesia caused by MK-801”. The “prevention of Scopolamine-disturbed novel object recognition” value with male mice of SHK line is on record as “prevent memory impairment caused by Scopolamine”. Further, in the assay with Mice of SHK line, the “effect on Apomorphine-disturbed prepulse inhibition of startle” value is on record as “prevented disturbance of prepulse inhibition of startle caused by Apomorphine”.

As for `CNc1nn2c(C)c(N(C)C)c(C)nc2c1S(=O)(=O)c1ccccc1` [1.2.22(18)], the “anxiolytic activity in the elevated plus maze” value with male mice of BALB/c line [2] is listed as “anxiolytic activity analogous to the activity of control compounds”. Further, the “effect on amnesia caused by MK-801 (latent period, light arm stay, dark arm entries)” value in the assay with rats is “decrease amnesia caused by MK-801”. In addition, the “prevention of Scopolamine-disturbed novel object recognition” value with male mice of SHK line was “prevent memory impairment caused by Scopolamine”. In addition, the “effect on Apomorphine-disturbed prepulse inhibition of startle” value in the assay on Mice of SHK line is listed as “prevented disturbance of prepulse inhibition of startle caused by Apomorphine”. Besides, in the assay with male rats, the “effect on amnesia caused by Scopolamine (latent period, light arm stay, dark arm entries)” value is given as “decrease amnesia”.

For the molecule `O=C(CCCN1CCC(O)(c2ccc(Cl)cc2)CC1)c1ccc(F)cc1` [Haloperidol, reference compound], the “effect on Apomorphine-disturbed prepulse inhibition of startle” value in the assay on Mice of SHK line was “prevented disturbance of prepulse inhibition of startle caused by Apomorphine”.

These data come from patent US8618114B2 (priority 2008, dated 2013).
